According to patent US9695155B2, “Herbicidal substituted pyrimidinyloxy benzene compounds” (E. I. DU PONT DE NEMOURS AND COMPANY, priority 2013, dated 2017):

Key:
[1] = system: chickweed; assay: Test D preemergence; format: in vivo, Stellaria media; details: Stellaria media, pre-emergence; for pest or weed control at 16 g/ha: 16 g ai/ha, scale 0 (no effect) to 100 (complete control), read-out: Plant response rating, Chickweed; for pest or weed control at 31 g/ha: 31 g ai/ha; for pest or weed control at 31 g/ha / pest or weed control at 62 g/ha / pest or weed control at 125 g/ha: scale 0-100, read-out: Plant response rating, Chickweed; for pest or weed control at 62 g/ha: 62 g ai/ha; for pest or weed control at 125 g/ha: 125 g ai/ha
Procedure, shortened: (§1)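 Seeds sown in silt loam soil got preemergence sprays; plants in peat/vermiculite potting medium were sprayed postemergence at 2–18 cm (1- to 4-leaf stage). Chemicals were formulated in a non-phytotoxic solvent mixture with surfactant. After 7 to 21 days in a controlled environment, injury was rated visually versus controls, 0 (no effect) to 100 (complete control).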

[2] = system: field poppy; assay: Test D preemergence; format: in vivo, Papaver rhoeas; details: Papaver rhoeas, pre-emergence; for pest or weed control at 16 g/ha: 16 g ai/ha, scale 0 (no effect) to 100 (complete control), read-out: Plant response rating, Field Poppy; for pest or weed control at 31 g/ha: 31 g ai/ha; for pest or weed control at 31 g/ha / pest or weed control at 62 g/ha / pest or weed control at 125 g/ha: scale 0-100, read-out: Plant response rating, Field Poppy; for pest or weed control at 62 g/ha: 62 g ai/ha; for pest or weed control at 125 g/ha: 125 g ai/ha
Procedure, shortened: as §1

[3] = system: pigweed; assay: Test D preemergence; format: in vivo, Amaranthus retroflexus; details: Amaranthus retroflexus, pre-emergence; for pest or weed control at 16 g/ha: 16 g ai/ha; for pest or weed control at 16 g/ha / pest or weed control at 31 g/ha: scale 0 (no effect) to 100 (complete control), read-out: Plant response rating, Pigweed; for pest or weed control at 31 g/ha: 31 g ai/ha; for pest or weed control at 62 g/ha: 62 g ai/ha; for pest or weed control at 62 g/ha / pest or weed control at 125 g/ha: scale 0-100, read-out: Plant response rating, Pigweed; for pest or weed control at 125 g/ha: 125 g ai/ha
Procedure, shortened: as §1

[4] = system: spring barley; assay: Test D preemergence; format: in vivo, Hordeum vulgare; details: Hordeum vulgare, pre-emergence; for plant injury at 16 g/ha: 16 g ai/ha, scale 0 (no effect) to 100 (complete control), read-out: Plant response rating, Barley, Spring; for plant injury at 31 g/ha: 31 g ai/ha; for plant injury at 31 g/ha / plant injury at 62 g/ha / plant injury at 125 g/ha: scale 0-100, read-out: Plant response rating, Barley, Spring; for plant injury at 62 g/ha: 62 g ai/ha; for plant injury at 125 g/ha: 125 g ai/ha
Procedure, shortened: as §1

[5] = system: winter barley; assay: Test D preemergence; format: in vivo, Hordeum vulgare; details: Hordeum vulgare, pre-emergence; for plant injury at 16 g/ha: 16 g ai/ha, scale 0 (no effect) to 100 (complete control), read-out: Plant response rating, Barley, Winter; for plant injury at 31 g/ha: 31 g ai/ha; for plant injury at 31 g/ha / plant injury at 62 g/ha / plant injury at 125 g/ha: scale 0-100, read-out: Plant response rating, Barley, Winter; for plant injury at 62 g/ha: 62 g ai/ha; for plant injury at 125 g/ha: 125 g ai/ha
Procedure, shortened: as §1

[6] = system: wild buckwheat; assay: Test D preemergence; format: in vivo, Polygonum convolvulus; details: Fallopia convolvulus, pre-emergence; for pest or weed control at 16 g/ha: 16 g ai/ha, scale 0 (no effect) to 100 (complete control), read-out: Plant response rating, Buckwheat, Wild; for pest or weed control at 31 g/ha: 31 g ai/ha; for pest or weed control at 31 g/ha / pest or weed control at 62 g/ha / pest or weed control at 125 g/ha: scale 0-100, read-out: Plant response rating, Buckwheat, Wild; for pest or weed control at 62 g/ha: 62 g ai/ha; for pest or weed control at 125 g/ha: 125 g ai/ha
Procedure, shortened: as §1

[7] = system: chickweed; assay: Test D postemergence; format: in vivo, Stellaria media; details: Stellaria media, post-emergence; for pest or weed control at 16 g/ha: 16 g ai/ha, scale 0-100, read-out: Plant response rating, Chickweed; for pest or weed control at 31 g/ha: 31 g ai/ha; for pest or weed control at 31 g/ha / pest or weed control at 62 g/ha / pest or weed control at 125 g/ha: scale 0 to 100 (0 no effect, 100 complete control), read-out: Plant response rating, Chickweed; for pest or weed control at 62 g/ha: 62 g ai/ha; for pest or weed control at 125 g/ha: 125 g ai/ha
Procedure, shortened: as §1

[8] = system: spring barley; assay: Test D postemergence; format: in vivo, Hordeum vulgare; details: Hordeum vulgare, post-emergence, Postemergence, scale 0 to 100 (0 no effect, 100 complete control), read-out: Plant response rating, Barley, Spring; for plant injury at 16 g/ha: 16 g ai/ha; for plant injury at 31 g/ha: 31 g ai/ha; for plant injury at 62 g/ha: 62 g ai/ha; for plant injury at 125 g/ha: 125 g ai/ha
Procedure, shortened: as §1

[9] = system: winter barley; assay: Test D postemergence; format: in vivo, Hordeum vulgare; details: Hordeum vulgare, post-emergence, Postemergence, scale 0 to 100 (0 no effect, 100 complete control), read-out: Plant response rating, Barley, Winter; for plant injury at 16 g/ha: 16 g ai/ha; for plant injury at 31 g/ha: 31 g ai/ha; for plant injury at 62 g/ha: 62 g ai/ha; for plant injury at 125 g/ha: 125 g ai/ha
Procedure, shortened: as §1

[10] = system: wild oat; assay: Test D postemergence; format: in vivo, Avena fatua; details: Avena fatua, post-emergence; for pest or weed control at 16 g/ha: 16 g ai/ha, scale 0-100, read-out: Plant response rating, Oat, Wild; for pest or weed control at 31 g/ha: 31 g ai/ha; for pest or weed control at 31 g/ha / pest or weed control at 62 g/ha / pest or weed control at 125 g/ha: scale 0 to 100 (0 no effect, 100 complete control), read-out: Plant response rating, Oat, Wild; for pest or weed control at 62 g/ha: 62 g ai/ha; for pest or weed control at 125 g/ha: 125 g ai/ha
Procedure, shortened: as §1

SMILES | pest or weed control at 16 g/ha [1] | pest or weed control at 31 g/ha [1] | pest or weed control at 62 g/ha [1] | pest or weed control at 125 g/ha [1] | pest or weed control at 16 g/ha [2] | pest or weed control at 31 g/ha [2] | pest or weed control at 62 g/ha [2] | pest or weed control at 125 g/ha [2] | pest or weed control at 16 g/ha [3] | pest or weed control at 31 g/ha [3] | pest or weed control at 62 g/ha [3] | pest or weed control at 125 g/ha [3] | plant injury at 16 g/ha [4] | plant injury at 31 g/ha [4] | plant injury at 62 g/ha [4] | plant injury at 125 g/ha [4] | plant injury at 16 g/ha [5] | plant injury at 31 g/ha [5] | plant injury at 62 g/ha [5] | plant injury at 125 g/ha [5] | further results
FC(F)(F)c1cn(-c2ccccc2Oc2ncc(Cl)cn2)nn1 [Compound 166, 5-chloro-2-[2-[4-(trifluoromethyl)-1H-1,2,3-triazol-1-yl]phenoxy]pyrimidine] | 85% | 95% | 95% | 100% | 100% | 100% | 100% | 100% | 100% | 100% | 100% | 100% | 0% | 0% | 30% | 60% | 0% | 0% | 35% | 50% | pest or weed control at 16 g/ha [6]: 60%; pest or weed control at 31 g/ha [6]: 95%; pest or weed control at 62 g/ha [6]: 100%; pest or weed control at 125 g/ha [6]: 100%; pest or weed control at 16 g/ha [7]: 55%; pest or weed control at 31 g/ha [7]: 65%; pest or weed control at 62 g/ha [7]: 80%; pest or weed control at 125 g/ha [7]: 90%; plant injury at 16 g/ha [8]: 10%; plant injury at 31 g/ha [8]: 20%; plant injury at 62 g/ha [8]: 30%; plant injury at 125 g/ha [8]: 45%; plant injury at 16 g/ha [9]: 5%; plant injury at 31 g/ha [9]: 15%; plant injury at 62 g/ha [9]: 25%; plant injury at 125 g/ha [9]: 35%; pest or weed control at 16 g/ha [10]: 25%; pest or weed control at 31 g/ha [10]: 30%; pest or weed control at 62 g/ha [10]: 35%; pest or weed control at 125 g/ha [10]: 40%
FC(F)(F)COc1cnn(-c2ccccc2Oc2ncc(Cl)cn2)c1 [Compound 138, 5-chloro-2-[2-[4-(2,2,2-trifluoroethoxy)-1H-pyrazol-1-yl]phenoxy]pyrimidine] | 100% | 100% | 100% | 100% | 100% | 100% | 100% | 100% | 0% | 25% | 100% | 100% | 10% | 10% | 10% | 15% | 0% | 0% | 5% | 15% | pest or weed control at 16 g/ha [6]: 60%; pest or weed control at 31 g/ha [6]: 35%; pest or weed control at 62 g/ha [6]: 55%; pest or weed control at 125 g/ha [6]: 75%; pest or weed control at 16 g/ha [7]: 20%; pest or weed control at 31 g/ha [7]: 20%; pest or weed control at 62 g/ha [7]: 40%; pest or weed control at 125 g/ha [7]: 55%; plant injury at 16 g/ha [8]: 10%; plant injury at 31 g/ha [8]: 10%; plant injury at 62 g/ha [8]: 10%; plant injury at 125 g/ha [8]: 15%; plant injury at 16 g/ha [9]: 5%; plant injury at 31 g/ha [9]: 5%; plant injury at 62 g/ha [9]: 5%; plant injury at 125 g/ha [9]: 10%; pest or weed control at 16 g/ha [10]: 5%; pest or weed control at 31 g/ha [10]: 0%; pest or weed control at 62 g/ha [10]: 5%; pest or weed control at 125 g/ha [10]: 10%
